According to patent US20080021086A1, “Pharmaceutical Composition for Prevention or Treatment of Lipid Metabolism Disorder” (KISSEI PHARMACEUTICAL CO., LTD., priority 2004, published 2008):

What was measured:
[1] = system: diabetic patients; conditions: single dose, compared to placebo; cited from earlier work
[2] = system: Type 2 diabetic patients; experiment: Clinical efficacy on lipid metabolism disorders in diabetic patients (clinical study of mitiglinide calcium hydrate tablets); type: in vivo, human
Description: The following clinical study was conducted in Type 2 diabetic patients using tablets containing 5 mg of mitiglinide calcium hydrate and tablets containing 10 mg of mitiglinide calcium hydrate.
Patients included: Type 2 diabetic patients;
Mode of dosing: oral administration of 5 to 20 mg as a single dose three times per day just before (5 minutes before) each meal;
Dosing period: 28 weeks to 52 weeks;
Major items of observation: stabilized hemoglobin A1c (HbA1c), biochemical examination of blood (total cholesterol, triglyceride, LDL-cholesterol, HDL-cholesterol, free fatty acid);
Statistical Method: in all patients with an abnormal value of each lipid at pretreatment and without any hypolipidemic agent, significance test was conducted on the average of the final evaluation against the average of the pretreatment (*: P<0.05, **: P<0.01).
Patients with 150 mg/dL or more of serum TG at pretreatment were picked out as an abnormal group, the efficacy of mitiglinide calcium hydrate was evaluated on the group.
Patients with 200 mg/dL or more of serum TC at pretreatment were picked out as an abnormal group, the efficacy of mitiglinide calcium hydrate was evaluated.
Patients with 0.86 mEq/L or more of serum free fatty acid (FFA), 120 mg/dL or more of LDL-cholesterol (LDL-C) and less than 40 mg/dL of HDL-cholesterol at pretreatment, respectively, were picked out as abnormal groups, the efficacy of mitiglinide calcium hydrate was evaluated.

[3] = system: diabetic patient; conditions: single dose; cited from earlier work
[4] = after 12-week repeated administration compared to pretreatment; cited from earlier work
[5] = Example 2, person, 52 weeks vs pretreatment
[6] = Example 4, person, 40 weeks vs pretreatment
[7] = Example 5, person, 24 weeks vs pretreatment
[8] = Example 6, person, 52 weeks vs pretreatment
[9] = Example 7, person, 52 weeks vs pretreatment

CCOc1cc(CC(=O)N[C@@H](CC(C)C)c2ccccc2N2CCCCC2)ccc1C(=O)O [repaglinide]
effect on postprandial lipid variation [1]: did not show significant improving effect

O.O.O=C(O)[C@H](CC(=O)N1C[C@H]2CCCC[C@H]2C1)Cc1ccccc1.[Ca] [mitiglinide calcium hydrate, (2S)-2-benzyl-3-(cis-hexa hydro-2-isoindolinylcarbonyl)propionic acid calcium dihydrate]
FFA at the final evaluation ([2]; Example 2, person, 10 mg till 16th week then 20 mg, after 52-week administration, pretreatment 0.94): 0.26 mEq/L | LDL-C at the final evaluation ([2]; Example 2, person, 10 mg till 16th week then 20 mg, after 52-week administration, pretreatment 137): 108 mg/dL | TC at the final evaluation ([2]; Example 2, person, 10 mg till 16th week then 20 mg, after 52-week administration, pretreatment 240): 185 mg/dL | change of FFA [2, 5]: −0.68 mEq/L | change of LDL-C [2, 5]: -29 mg/dL | change of TC [2, 5]: -55 mg/dL | TG at the final evaluation ([2]; Example 3, person, 10 mg, after 52-week administration, pretreatment 171): 110 mg/dL | change of TG ([2]; Example 3, person, 52 weeks vs pretreatment): -61 mg/dL | TG at the final evaluation ([2]; Example 4, person, 10 mg till 16th week then 20 mg, after 40-week administration, pretreatment 163): 101 mg/dL | TC at the final evaluation ([2]; Example 4, person, 10 mg till 16th week then 20 mg, after 40-week administration, pretreatment 214): 162 mg/dL | change of TC [2, 6]: -52 mg/dL | change of TG [2, 6]: -62 mg/dL | FFA at the final evaluation ([2]; Example 5, person with concomitant hyperlipidemia, 10 mg till 16th week then 20 mg, after 24-week administration, pretreatment 0.53): 0.30 mEq/L | TG at the final evaluation ([2]; Example 5, person with concomitant hyperlipidemia, 10 mg till 16th week then 20 mg, after 24-week administration, pretreatment 213): 145 mg/dL | change of FFA [2, 7]: −0.23 mEq/L | change of TG [2, 7]: -68 mg/dL | LDL-C at the final evaluation ([2]; Example 6, person with concomitant hyperlipidemia, 10 mg, after 52-week administration, pretreatment 149): 134 mg/dL | TC at the final evaluation ([2]; Example 6, person with concomitant hyperlipidemia, 10 mg, after 52-week administration, pretreatment 260): 203 mg/dL | change of LDL-C [2, 8]: -15 mg/dL | change of TC [2, 8]: -57 mg/dL | HDL-C at the final evaluation ([2]; Example 7, person, 10 mg, after 52-week administration, pretreatment 57): 72 mg/dL | LDL-C at the final evaluation ([2]; Example 7, person, 10 mg, after 52-week administration, pretreatment 129): 116 mg/dL | TG at the final evaluation ([2]; Example 7, person, 10 mg, after 52-week administration, pretreatment 170): 100 mg/dL | TC at the final evaluation ([2]; Example 7, person, 10 mg, after 52-week administration, pretreatment 226): 206 mg/dL | change of HDL-C [2, 9]: +15 mg/dL | change of LDL-C [2, 9]: -13 mg/dL | change of TC [2, 9]: -20 mg/dL | change of TG [2, 9]: -70 mg/dL | Average of TG, Final evaluation ([2]; all patients with 150 mg/dL or more of pretreatment TG, oral 5 to 20 mg three times per day, 28 to 52 weeks, pretreatment average 262.6, ** P<0.01 vs pretreatment): 216.3** mg/dL | Average of TC, After the end of administration ([2]; all patients with 200 mg/dL or more of TC at pretreatment, oral 5 to 20 mg three times per day, 28 to 52 weeks, pretreatment average 231.8, * P<0.05 vs pretreatment): 226.4* mg/dL | Average LDL-C, After the end of administration ([2]; patients with 120 mg/dL or more of LDL-C at pretreatment, pretreatment average 144.9, ** P<0.01): 137.7** mg/dL | Average FFA, After the end of administration ([2]; patients with 0.86 mEq/L or more of FFA at pretreatment, pretreatment average 1.021, ** P<0.01): 0.745** mEq/L | overall effect on blood lipids ([2]; patients with high blood TG, blood TC, FFA or LDL-C, or low HDL-C): remarkable effects to lower TG, TC, LDL-C or FFA, or increase HDL-C | Average HDL-C, After the end of administration ([2]; patients with less than 40 mg/dL of HDL-C at pretreatment, pretreatment average 34.7, ** P<0.01): 40.3** mg/dL

CC(C)[C@H]1CC[C@H](C(=O)N[C@H](Cc2ccccc2)C(=O)O)CC1 [nateglinide]
effect on postprandial increase of triglyceride [3]: suppressed postprandial increase of triglyceride | effect on postprandial lipid variation [4]: did not show a significant improvement
